Source: PubChem BioAssay (NCI)
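Dose response: 5 concentrations. Exposure: 48 h. Format: 96-well plates. Endpoint: linear interpolation; highest concentration if not reached. At the TGI there is no net growth.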

Columns and labels:
Experiment in all cases: DTP human tumour cell line panel, 48 h
RPMI-8226 leukemia = test system: RPMI-8226 leukemia
KM12 colon = test system: KM12 colon
EKVX NSCLC = test system: EKVX NSCLC
HCT-15 colon = test system: HCT-15 colon
MALME-3M melanoma = test system: MALME-3M melanoma
RXF 393 renal = test system: RXF 393 renal
SW-620 colon = test system: SW-620 colon
MCF7 breast = test system: MCF7 breast
MDA-MB-435 = test system: MDA-MB-435
MDA-N = test system: MDA-N
ACHN renal = test system: ACHN renal
DU-145 prostate = test system: DU-145 prostate
MDA-MB-231 breast = test system: MDA-MB-231 breast
NCI-H522 lung = test system: NCI-H522 lung
HCT-116 colon = test system: HCT-116 colon
SK-MEL-28 melanoma = test system: SK-MEL-28 melanoma
HS 578T breast = test system: HS 578T breast
HT29 colon = test system: HT29 colon
OVCAR-4 ovarian = test system: OVCAR-4 ovarian
OVCAR-3 ovarian = test system: OVCAR-3 ovarian
COLO 205 colon = test system: COLO 205 colon
NCI-H460 lung = test system: NCI-H460 lung
SN12C renal = test system: SN12C renal
PC-3 prostate = test system: PC-3 prostate
A549 NSCLC = test system: A549 NSCLC
HCC-2998 colon = test system: HCC-2998 colon
CAKI-1 renal = test system: CAKI-1 renal
SK-OV-3 ovarian = test system: SK-OV-3 ovarian
SK-MEL-5 melanoma = test system: SK-MEL-5 melanoma
CCRF-CEM leukemia = test system: CCRF-CEM leukemia
BT-549 breast = test system: BT-549 breast
T-47D breast = test system: T-47D breast
IGROV1 ovarian = test system: IGROV1 ovarian
SR leukemia = test system: SR leukemia
HOP-92 NSCLC = test system: HOP-92 NSCLC
LOX IMVI melanoma = test system: LOX IMVI melanoma
UACC-62 melanoma = test system: UACC-62 melanoma
U251 CNS = test system: U251 CNS
OVCAR-5 ovarian = test system: OVCAR-5 ovarian
UACC-257 melanoma = test system: UACC-257 melanoma
NCI-H23 lung = test system: NCI-H23 lung
A498 renal = test system: A498 renal
MOLT-4 leukemia = test system: MOLT-4 leukemia
NCI-H226 lung = test system: NCI-H226 lung
SF-539 CNS = test system: SF-539 CNS
OVCAR-8 ovarian = test system: OVCAR-8 ovarian
SNB-75 CNS = test system: SNB-75 CNS
M14 melanoma = test system: M14 melanoma
HL-60(TB) leukemia = test system: HL-60(TB) leukemia
HOP-62 NSCLC = test system: HOP-62 NSCLC
786-0 renal = test system: 786-0 renal
SNB-19 CNS = test system: SNB-19 CNS
NCI/ADR-RES ovarian = test system: NCI/ADR-RES ovarian
K-562 leukemia = test system: K-562 leukemia
SK-MEL-2 melanoma = test system: SK-MEL-2 melanoma
UO-31 renal = test system: UO-31 renal
TK-10 renal = test system: TK-10 renal
M19-MEL melanoma = test system: M19-MEL melanoma
DMS 273 small cell lung = test system: DMS 273 small cell lung
DMS 114 small cell lung = test system: DMS 114 small cell lung
KM20L2 colon = test system: KM20L2 colon
SF-268 CNS = test system: SF-268 CNS
SF-295 CNS = test system: SF-295 CNS
HOP-18 NSCLC = test system: HOP-18 NSCLC
DLD-1 colon = test system: DLD-1 colon

Measured: TGI

COC(=O)C(COC(=O)/C=C/c1ccc(OC(C)=O)c(OC(C)=O)c1)NC(=O)/C=C/c1ccc(OC(C)=O)c(OC(C)=O)c1 (stereo not drawn)
81.7 µM: SK-MEL-28 melanoma
40.1 µM: MDA-MB-231 breast
33.7 µM: OVCAR-3 ovarian
38.8 µM: KM12 colon | T-47D breast
80.4 µM: HOP-62 NSCLC
37.8 µM: NCI-H522 lung
62.8 µM: OVCAR-4 ovarian
42.6 µM: HCT-116 colon
43.4 µM: COLO 205 colon
45.2 µM: DU-145 prostate
32.6 µM: PC-3 prostate
32 µM: MALME-3M melanoma
59.4 µM: CAKI-1 renal
48 µM: HT29 colon
47.3 µM: HCC-2998 colon
73.4 µM: NCI-H23 lung
47.2 µM: 786-0 renal
35.1 µM: UACC-62 melanoma
80.8 µM: ACHN renal
29.7 µM: SK-MEL-5 melanoma
36.3 µM: SK-MEL-2 melanoma
48.1 µM: NCI-H460 lung
39.5 µM: M14 melanoma
71.7 µM: MDA-N
53.8 µM: LOX IMVI melanoma
45.4 µM: SN12C renal
not listed: UO-31 renal | TK-10 renal | M19-MEL melanoma | DMS 273 small cell lung | DMS 114 small cell lung | KM20L2 colon | SF-268 CNS | SF-295 CNS | HOP-18 NSCLC | DLD-1 colon
> 100 µM: all other assays above

CC(=O)O[C@@]12CO[C@@H]1C[C@@H](O)[C@@]1(C)C(=O)[C@H](O)C3=C(C)[C@@H](OC(=O)[C@H](O)[C@@H](NC(=O)c4ccccc4)c4ccccc4)C[C@@](O)([C@@H](OC(=O)c4ccccc4)C12)C3(C)C (stereo partly drawn)
81.9 µM: NCI-H226 lung
22.8 µM: DMS 114 small cell lung
> 39.9 µM: HL-60(TB) leukemia
0.176 µM: COLO 205 colon
> 78.8 µM: UO-31 renal
0.0705 µM: HCC-2998 colon
70.9 µM: M19-MEL melanoma
0.152 µM: HCT-116 colon
35.4 µM: RXF 393 renal
74.4 µM: NCI/ADR-RES ovarian
25.1 µM: NCI-H460 lung
8.52 µM: SF-295 CNS
0.887 µM: SK-MEL-2 melanoma
57 µM: ACHN renal
43.8 µM: MDA-MB-231 breast
> 42.5 µM: MOLT-4 leukemia
41.9 µM: LOX IMVI melanoma
> 72.5 µM: TK-10 renal
> 69.7 µM: HOP-62 NSCLC
> 50.1 µM: SR leukemia
0.0985 µM: KM20L2 colon
13.5 µM: DMS 273 small cell lung
0.124 µM: HT29 colon
0.0579 µM: SF-539 CNS
> 67.5 µM: CCRF-CEM leukemia
0.0815 µM: SNB-75 CNS
not listed: KM12 colon | MALME-3M melanoma | MDA-MB-435 | MDA-N | NCI-H522 lung | HS 578T breast | OVCAR-3 ovarian | SK-MEL-5 melanoma | HOP-92 NSCLC | UACC-62 melanoma | OVCAR-5 ovarian | NCI-H23 lung | HOP-18 NSCLC | DLD-1 colon
> 100 µM: all other assays above

COc1ccc(/C(=C/n2ccnc2)C(O)c2ccc(OC)c(OC)c2)cc1OC (stereo not drawn)
not listed: EKVX NSCLC | MALME-3M melanoma | MCF7 breast | MDA-MB-435 | MDA-N | ACHN renal | DU-145 prostate | MDA-MB-231 breast | NCI-H522 lung | HCT-116 colon | HS 578T breast | PC-3 prostate | A549 NSCLC | HCC-2998 colon | CAKI-1 renal | SK-MEL-5 melanoma | BT-549 breast | T-47D breast | UACC-62 melanoma | NCI/ADR-RES ovarian | DMS 114 small cell lung
> 100 µM: all other assays above

COc1cc2c(cc1O)C1(Cc3ccc4c(c3C1=O)OCO4)N(C)CC2 (stereo not drawn)
not listed: LOX IMVI melanoma | M19-MEL melanoma | DMS 273 small cell lung | DMS 114 small cell lung | KM20L2 colon | HOP-18 NSCLC | DLD-1 colon
> 100 µM: all other assays above
